Assay results: US9663573B2, “Methods of treating liver conditions using Notch2 antagonists” (GENENTECH, INC., priority 2011, dated 2017)

Experiments:
Notch2 = target: T1, Notch2 (Mus musculus, UniProt O35516); test: Notch2 signaling in cultured oval cells (activated Notch2 ICD by Western blot, Hes1 expression); format: cell-based; details: FIG. 2H
T1 construct: Cell cultures were established by culturing primary oval cells on Sw-3T3 fibroblasts; endogenous in cells; host or cells: primary mouse liver oval (progenitor) cells
Source text: The anti-activated Notch2 antibody (clone 40-2-7) was generated against the peptide VIMAKRKRKHGSLW, corresponding to amino acids 1697-1710 of the human Notch2 protein sequence (SEQ ID NO:73), coupled to KLH (YenZym Custom Antibodies, LLC). Splenocytes from a rabbit producing an antibody with the appropriate specificity were used to generate hybridomas (Epitomics, Inc.). Clone 40-2-7 was identified by screening the resulting rabbit monoclonal antibodies by immunoblotting and immunohistochemistry. This antibody recognizes both human (FIG. 7B, left panel) and mouse (FIG. 7B, right panel) active Notch2 at endogenous levels.
Progenitors cultured in the culture system maintained growth (FIG. 2A) and formed colonies consisting of small, tightly packed cells with a high nuclear-cytoplasmic ratio and a distinct raised edge (FIG. 2A, left panel). The cells within these colonies were uniformly EpCAM positive (FIG. 2A, right panel). […] Activated Notch2 was detected by Western blot analysis using a rabbit monoclonal antibody raised against the S3 cleaved form of the human Notch2 protein (FIG. 7B). […]
Notch2 signaling was active in cultured oval cells, as transcriptionally active Notch2 intracellular domain (ICD) could be detected using an antibody specific to the γ-secretase cleaved form of this receptor (FIG. 2H). […]

[1] = test system: liver progenitor cells (oval cells); test: Primary oval cell culture on Sw-3T3 feeder fibroblasts: colony formation and proliferation; format: cell-based, mouse
Source text: To elucidate the role of Notch signaling in liver regeneration, an in vitro culture system was developed. Cell cultures were established by culturing primary oval cells on Sw-3T3 fibroblasts (ATCC), arrested with Mitomycin C (Sigma), in High Glucose Dulbecco's Modified Eagle Medium (DMEM; Invitrogen) supplemented with 15% Fetal Calf Serum (Sigma), non-essential amino acids (Invitrogen), Glutamax (Invitrogen), and ITS (Invitrogen).

T1 sequence (O35516 26-2473): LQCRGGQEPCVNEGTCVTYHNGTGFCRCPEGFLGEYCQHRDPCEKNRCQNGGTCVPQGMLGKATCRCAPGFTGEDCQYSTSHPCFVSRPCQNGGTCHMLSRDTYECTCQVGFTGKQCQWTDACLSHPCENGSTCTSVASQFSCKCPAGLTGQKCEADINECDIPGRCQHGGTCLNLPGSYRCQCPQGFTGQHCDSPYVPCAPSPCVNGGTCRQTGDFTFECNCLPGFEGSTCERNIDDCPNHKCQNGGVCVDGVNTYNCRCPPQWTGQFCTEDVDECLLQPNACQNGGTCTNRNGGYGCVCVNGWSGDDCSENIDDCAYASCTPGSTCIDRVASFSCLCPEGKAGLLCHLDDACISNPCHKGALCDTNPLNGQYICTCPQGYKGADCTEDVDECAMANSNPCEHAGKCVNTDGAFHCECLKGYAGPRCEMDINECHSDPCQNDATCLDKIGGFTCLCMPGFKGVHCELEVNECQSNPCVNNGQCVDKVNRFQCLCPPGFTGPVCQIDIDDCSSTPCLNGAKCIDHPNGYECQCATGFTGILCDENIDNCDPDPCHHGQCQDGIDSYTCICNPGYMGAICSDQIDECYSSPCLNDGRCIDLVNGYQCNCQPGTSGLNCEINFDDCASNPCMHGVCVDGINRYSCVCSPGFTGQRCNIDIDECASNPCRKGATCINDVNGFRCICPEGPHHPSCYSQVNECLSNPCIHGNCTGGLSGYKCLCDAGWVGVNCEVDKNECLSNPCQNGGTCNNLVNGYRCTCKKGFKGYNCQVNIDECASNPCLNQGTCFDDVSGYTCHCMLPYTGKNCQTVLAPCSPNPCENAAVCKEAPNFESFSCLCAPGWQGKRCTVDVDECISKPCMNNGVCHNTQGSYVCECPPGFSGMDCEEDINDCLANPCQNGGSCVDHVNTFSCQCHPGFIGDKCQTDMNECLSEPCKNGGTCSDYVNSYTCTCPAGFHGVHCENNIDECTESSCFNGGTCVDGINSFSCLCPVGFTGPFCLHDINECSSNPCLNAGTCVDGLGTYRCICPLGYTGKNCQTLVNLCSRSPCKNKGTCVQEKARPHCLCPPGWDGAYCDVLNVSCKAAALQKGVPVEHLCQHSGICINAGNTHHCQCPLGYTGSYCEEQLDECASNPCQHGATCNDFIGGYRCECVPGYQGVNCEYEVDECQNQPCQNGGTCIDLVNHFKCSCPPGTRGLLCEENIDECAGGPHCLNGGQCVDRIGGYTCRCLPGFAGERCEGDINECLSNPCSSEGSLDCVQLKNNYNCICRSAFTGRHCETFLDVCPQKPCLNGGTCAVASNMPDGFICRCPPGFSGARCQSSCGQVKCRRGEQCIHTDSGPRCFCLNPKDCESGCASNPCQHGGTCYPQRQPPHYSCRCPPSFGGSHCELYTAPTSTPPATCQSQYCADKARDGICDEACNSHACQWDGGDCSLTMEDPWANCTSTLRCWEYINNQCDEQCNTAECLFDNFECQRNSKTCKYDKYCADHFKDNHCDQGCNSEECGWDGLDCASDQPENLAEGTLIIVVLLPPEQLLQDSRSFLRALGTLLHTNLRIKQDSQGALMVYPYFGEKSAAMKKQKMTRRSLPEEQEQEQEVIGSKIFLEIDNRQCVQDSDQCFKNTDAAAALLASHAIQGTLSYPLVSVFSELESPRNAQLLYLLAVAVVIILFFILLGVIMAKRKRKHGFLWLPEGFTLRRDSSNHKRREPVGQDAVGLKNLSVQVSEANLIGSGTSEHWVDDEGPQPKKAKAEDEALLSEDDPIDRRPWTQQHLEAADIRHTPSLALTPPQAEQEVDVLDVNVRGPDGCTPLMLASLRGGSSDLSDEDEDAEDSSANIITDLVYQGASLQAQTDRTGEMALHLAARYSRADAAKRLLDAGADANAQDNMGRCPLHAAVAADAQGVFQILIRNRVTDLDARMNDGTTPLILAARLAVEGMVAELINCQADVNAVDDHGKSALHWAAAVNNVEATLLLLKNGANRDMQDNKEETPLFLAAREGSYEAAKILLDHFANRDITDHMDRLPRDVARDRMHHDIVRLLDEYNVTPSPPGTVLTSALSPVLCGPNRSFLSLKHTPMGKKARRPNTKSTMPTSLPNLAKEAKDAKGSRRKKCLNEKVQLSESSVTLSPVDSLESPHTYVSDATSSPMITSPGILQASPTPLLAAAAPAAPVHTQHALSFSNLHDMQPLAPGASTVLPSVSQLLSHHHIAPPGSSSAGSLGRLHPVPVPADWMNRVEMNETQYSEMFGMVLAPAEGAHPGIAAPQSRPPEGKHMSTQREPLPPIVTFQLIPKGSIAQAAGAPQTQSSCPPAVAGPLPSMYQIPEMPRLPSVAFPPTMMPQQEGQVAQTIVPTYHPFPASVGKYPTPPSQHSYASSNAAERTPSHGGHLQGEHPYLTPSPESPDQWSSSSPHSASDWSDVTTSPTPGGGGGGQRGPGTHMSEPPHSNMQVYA

Compound: C[C@H](NC(=O)Cc1cc(F)cc(F)c1)C(=O)N[C@H](C(=O)OC(C)(C)C)c1ccccc1 [DAPT, N—[N-(3,5-difluorophenacetyl)-1-alanyl]-S-phenylglycine t-butyl ester]
- appearance of gamma-secretase cleaved (active) form of Notch2 (ICD) (Notch2): absent
- progenitor cell proliferation ([1]; FIG. 2D): small increase
- colony formation frequency ([1]; plated CD45 negative, non-parenchymal cells, without DAPT approximately 1 colony per 100,000): approximately 1 colony per 10,000 cells plated
- enhancement of colony formation ([1]; primary cultures treated with DAPT vs untreated, FIG. 2B): approximately ten-fold
